Legend:
Experiment in all cases: Test D controlled growth environment herbicide test, pre- and postemergence
Assay type in all cases: in vivo
[1] = test system: radish, wild (wild radish, Raphanus raphanistrum)
Source text: (§1) Seeds of plant species selected from bluegrass (annual bluegrass, Poa annua), blackgrass (Alopecurus myosuroides), Canada thistle (Cirsium arvense), canarygrass (Phalaris minor), chickweed (common chickweed, Stellaria media), geranium, cutleaf (cutleaf geranium, Geranium dissectum), galium (catchweed bedstraw, Galium aparine), bromegrass, downy (downy bromegrass, Bromus tectorum), field poppy (Papaver rhoeas), field violet (Viola arvensis), foxtail, green (green foxtail, Setaria viridis), deadnettle (henbit deadnettle, Lamium amplexicaule), ryegrass, Italian (Italian ryegrass, Lolium multiflorum), kochia (Kochia scoparia), lambsquarters (Chenopodium album), oilseed rape (Brassica napus), pigweed (Amaranthus retroflexus), chamomile (scentless chamomile, Matricaria inodora), Russian thistle (Salsola kali), speedwell (bird's-eye speedwell, Veronica persica), barley, spring (spring barley, Hordeum vulgare), wheat, spring (spring wheat, Triticum aestivum), buckwheat, wild (wild buckwheat, Polygonum convolvulus), mustard, wild (wild mustard, Sinapis arvensis), oat, wild (wild oat, Avena fatua), radish, wild (wild radish, Raphanus raphanistrum), windgrass (Apera spica-venti), barley, winter (winter barley, Hordeum vulgare), and wheat, winter (winter wheat, Triticum aestivum) were planted into a silt loam soil and treated preemergence with test chemicals formulated in a non-phytotoxic solvent mixture which included a surfactant.
(§2) At the same time, these species were planted in pots containing Redi-Earth® planting medium (Scotts Company, 14111 Scottslawn Road, Marysville, Ohio 43041) comprising spaghnum peat moss, vermiculite, wetting agent and starter nutrients and treated with postemergence applications of the test chemicals formulated in the same manner. Plants ranged in height from 2 to 18 cm (1- to 4-leaf stage). Treated plants and controls were maintained in a controlled growth environment for 14 to 21 d after which time all species were compared to controls and visually evaluated. Plant response ratings, summarized in Table D, are based on a scale of 0 to 100 where 0 is no effect and 100 is complete control. A dash (-) response means no test result.

[2] = test system: pigweed (Amaranthus retroflexus)
Source text: as §1, §2

[3] = test system: wheat, winter (winter wheat, Triticum aestivum)
Source text: as §1, §2

[4] = test system: barley, winter (winter barley, Hordeum vulgare)
Source text: as §1, §2

[5] = test system: Russian thistle (Salsola kali)
Source text: as §1, §2

[6] = test system: speedwell (bird's-eye speedwell, Veronica persica)
Source text: as §1, §2

[7] = test system: windgrass (Apera spica-venti)
Source text: as §1, §2

[8] = test system: bluegrass (annual bluegrass, Poa annua)
Source text: as §1, §2

[9] = test system: oat, wild (wild oat, Avena fatua)
Source text: as §1, §2

[10] = test system: field violet (Viola arvensis)
Source text: as §1, §2

[11] = Postemergence, 31 g ai/ha, scale 0 to 100 (0 no effect, 100 complete control)
[12] = Postemergence, 125 g ai/ha, visual rating on scale 0 (no effect) to 100 (complete control), 14 to 21 d
[13] = Postemergence, 250 g ai/ha, scale 0 to 100 (0 no effect, 100 complete control)
[14] = Preemergence, 62 g ai/ha, scale 0 to 100 (0 no effect, 100 complete control)
[15] = Preemergence, 125 g ai/ha, scale 0 to 100 (0 no effect, 100 complete control)
[16] = Preemergence, 250 g ai/ha, scale 0 to 100, 0 no effect, 100 complete control
[17] = postemergence, 62 g ai/ha, scale 0 to 100, 0 no effect, 100 complete control

## Cc1nn(C)c(=O)c(-c2c(C)sc3c(C)cc(Cl)cc23)c1O [Compound 35]
[1]; [11]
  Radish, Wild plant response rating: 85
[1]; [12]
  Plant response rating, Radish, Wild: 100
[1]; [13]
  Plant response rating, Radish, Wild: 100
[1]; Preemergence, 31 g ai/ha
  Plant response rating (scale of 0 to 100), Radish, Wild: 35
[1]; [14]
  Plant response rating, Radish, Wild: 100
[1]; [15]
  Plant response rating, Radish, Wild: 100
[1]; [16]
  Plant response rating, Radish, Wild: 100
[1]; [17]
  Plant response rating, Radish, Wild: 100
[2]; [11]
  Pigweed plant response rating: 80
[2]; [12]
  Plant response rating, Pigweed: 85
[2]; [13]
  Plant response rating, Pigweed: 98
[2]; Preemergence, 31 g ai/ha
  Plant response rating (scale of 0 to 100), Pigweed: 25
[2]; [14]
  Plant response rating, Pigweed: 95
[2]; [15]
  Plant response rating, Pigweed: 100
[2]; [16]
  Plant response rating, Pigweed: 100
[2]; [17]
  Plant response rating, Pigweed: 80
[3]; [11]
  Wheat, Winter plant response rating: 10
[3]; [12]
  Plant response rating, Wheat, Winter: 15
[3]; [13]
  Plant response rating, Wheat, Winter: 20
[3]; Preemergence, 31 g ai/ha
  Plant response rating (scale of 0 to 100), Wheat, Winter: 0
[3]; [14]
  Plant response rating, Wheat, Winter: 0
[3]; [15]
  Plant response rating, Wheat, Winter: 0
[3]; [16]
  Plant response rating, Wheat, Winter: 10
[3]; [17]
  Plant response rating, Wheat, Winter: 15
[4]; [11]
  Plant response rating, Barley, Winter: 0
[4]; [12]
  Plant response rating, Barley, Winter: 0
[4]; [13]
  Plant response rating, Barley, Winter: 15
[4]; Preemergence, 31 g ai/ha
  Plant response rating (scale of 0 to 100), Barley, Winter: 0
[4]; [14]
  Plant response rating, Barley, Winter: 0
[4]; [15]
  Plant response rating, Barley, Winter: 0
[4]; [16]
  Barley, Winter plant response rating: 0
[4]; [17]
  Plant response rating, Barley, Winter: 0
[5]; [11]
  Russian Thistle plant response rating: 70
[5]; [12]
  Plant response rating, Russian Thistle: 85
[5]; [13]
  Plant response rating, Russian Thistle: 95
[5]; Preemergence, 31 g ai/ha
  Plant response rating (scale of 0 to 100), Russian Thistle: 0
[5]; [14]
  Plant response rating, Russian Thistle: 0
[5]; [15]
  Plant response rating, Russian Thistle: 0
[5]; [16]
  Plant response rating, Russian Thistle: 25
[5]; [17]
  Plant response rating, Russian Thistle: 75
[6]; [11]
  Speedwell plant response rating: 70
[6]; [12]
  Plant response rating, Speedwell: 80
[6]; [13]
  Plant response rating, Speedwell: 100
[6]; Preemergence, 31 g ai/ha
  Plant response rating (scale of 0 to 100), Speedwell: 0
[6]; [14]
  Plant response rating, Speedwell: 75
[6]; [15]
  Plant response rating, Speedwell: 100
[6]; [16]
  Plant response rating, Speedwell: 100
[6]; [17]
  Plant response rating, Speedwell: 75
[7]; [11]
  Windgrass plant response rating: 25
[7]; [12]
  Plant response rating, Windgrass: 70
[7]; [13]
  Plant response rating, Windgrass: 85
[7]; Preemergence, 31 g ai/ha
  Plant response rating (scale of 0 to 100), Windgrass: 25
[7]; [14]
  Plant response rating, Windgrass: 95
[7]; [15]
  Plant response rating, Windgrass: 100
[7]; [16]
  Plant response rating, Windgrass: 100
[7]; [17]
  Plant response rating, Windgrass: 65
[8]; [11]
  Bluegrass plant response rating: 35
[8]; [12]
  Plant response rating, Bluegrass: 35
[8]; [13]
  Plant response rating, Bluegrass: 40
[8]; Preemergence, 31 g ai/ha
  Plant response rating (scale of 0 to 100), Bluegrass: 25
[8]; [14]
  Plant response rating, Bluegrass: 25
[8]; [15]
  Plant response rating, Bluegrass: 35
[8]; [16]
  Bluegrass plant response rating: 45
[8]; [17]
  Plant response rating, Bluegrass: 25
[9]; [11]
  Oat, Wild plant response rating: 85
[9]; [12]
  Plant response rating, Oat, Wild: 85
[9]; [13]
  Plant response rating, Oat, Wild: 98
[9]; Preemergence, 31 g ai/ha
  Plant response rating (scale of 0 to 100), Oat, Wild: 75
[9]; [14]
  Plant response rating, Oat, Wild: 80
[9]; [15]
  Plant response rating, Oat, Wild: 85
[9]; [16]
  Plant response rating, Oat, Wild: 95
[9]; [17]
  Plant response rating, Oat, Wild: 90
[10]; [11]
  Field Violet plant response rating: 65
[10]; [12]
  Plant response rating, Field Violet: 75
[10]; [13]
  Plant response rating, Field Violet: 98
[10]; Preemergence, 31 g ai/ha
  Plant response rating (scale of 0 to 100), Field Violet: 15
[10]; [14]
  Plant response rating, Field Violet: 75
[10]; [15]
  Plant response rating, Field Violet: 85
[10]; [16]
  Plant response rating, Field Violet: 100
[10]; [17]
  Plant response rating, Field Violet: 75

## CC(=O)Oc1c(C)nn(C)c(=O)c1-c1c(C)sc2ccc(Cl)cc12 [Compound 108]
[1]; [11]
  Radish, Wild plant response rating: 75
[1]; [12]
  Plant response rating, Radish, Wild: 85
[1]; [13]
  Plant response rating, Radish, Wild: 90
[1]; Preemergence, 31 g ai/ha
  Plant response rating (scale of 0 to 100), Radish, Wild: 45
[1]; Preemergence, 62 g ai/ha
  Plant response rating (scale of 0 to 100), Radish, Wild: 100
[1]; [15]
  Plant response rating, Radish, Wild: 100
[1]; [16]
  Plant response rating, Radish, Wild: 90
[1]; [17]
  Plant response rating, Radish, Wild: 75
[2]; [11]
  Pigweed plant response rating: 95
[2]; [12]
  Plant response rating, Pigweed: 100
[2]; [13]
  Plant response rating, Pigweed: 100
[2]; Preemergence, 31 g ai/ha
  Plant response rating (scale of 0 to 100), Pigweed: 100
[2]; Preemergence, 62 g ai/ha
  Plant response rating (scale of 0 to 100), Pigweed: 100
[2]; [15]
  Plant response rating, Pigweed: 100
[2]; [16]
  Plant response rating, Pigweed: 100
[2]; [17]
  Plant response rating, Pigweed: 100
[3]; [11]
  Wheat, Winter plant response rating: 10
[3]; [12]
  Plant response rating, Wheat, Winter: 20
[3]; [13]
  Plant response rating, Wheat, Winter: 20
[3]; Preemergence, 31 g ai/ha
  Plant response rating (scale of 0 to 100), Wheat, Winter: 0
[3]; Preemergence, 62 g ai/ha
  Plant response rating (scale of 0 to 100), Wheat, Winter: 0
[3]; [15]
  Plant response rating, Wheat, Winter: 10
[3]; [16]
  Plant response rating, Wheat, Winter: 30
[3]; [17]
  Plant response rating, Wheat, Winter: 15
[4]; [11]
  Barley, Winter plant response rating: 5
[4]; [12]
  Plant response rating, Barley, Winter: 10
[4]; [13]
  Plant response rating, Barley, Winter: 15
[4]; Preemergence, 31 g ai/ha
  Plant response rating (scale of 0 to 100), Barley, Winter: 0
[4]; [14]
  Plant response rating, Barley, Winter: 0
[4]; [15]
  Plant response rating, Barley, Winter: 10
[4]; [16]
  Plant response rating, Barley, Winter: 20
[4]; [17]
  Plant response rating, Barley, Winter: 5
[5]; [11]
  Russian Thistle plant response rating: 65
[5]; [12]
  Plant response rating, Russian Thistle: 75
[5]; [13]
  Plant response rating, Russian Thistle: 90
[5]; Preemergence, 31 g ai/ha
  Plant response rating (scale of 0 to 100), Russian Thistle: 0
[5]; Preemergence, 62 g ai/ha
  Plant response rating (scale of 0 to 100), Russian Thistle: 15
[5]; [15]
  Plant response rating, Russian Thistle: 70
[5]; [16]
  Plant response rating, Russian Thistle: 100
[5]; [17]
  Plant response rating, Russian Thistle: 70
[6]; [11]
  Speedwell plant response rating: 60
[6]; [12]
  Plant response rating, Speedwell: 70
[6]; [13]
  Plant response rating, Speedwell: 80
[6]; [17]
  Plant response rating, Speedwell: 65
[7]; [11]
  Windgrass plant response rating: 65
[7]; [12]
  Plant response rating, Windgrass: 75
[7]; [13]
  Plant response rating, Windgrass: 85
[7]; Preemergence, 31 g ai/ha
  Plant response rating (scale of 0 to 100), Windgrass: 25
[7]; Preemergence, 62 g ai/ha
  Plant response rating (scale of 0 to 100), Windgrass: 50
[7]; [15]
  Plant response rating, Windgrass: 75
[7]; [16]
  Plant response rating, Windgrass: 95
[7]; [17]
  Plant response rating, Windgrass: 70
[8]; [11]
  Bluegrass plant response rating: 5
[8]; [12]
  Plant response rating, Bluegrass: 25
[8]; [13]
  Plant response rating, Bluegrass: 35
[8]; Preemergence, 31 g ai/ha
  Plant response rating (scale of 0 to 100), Bluegrass: 10
[8]; [14]
  Plant response rating, Bluegrass: 15
[8]; [15]
  Plant response rating, Bluegrass: 35
[8]; [16]
  Plant response rating, Bluegrass: 75
[8]; [17]
  Plant response rating, Bluegrass: 10
[9]; [11]
  Oat, Wild plant response rating: 85
[9]; [12]
  Plant response rating, Oat, Wild: 100
[9]; [13]
  Plant response rating, Oat, Wild: 100
[9]; Preemergence, 31 g ai/ha
  Plant response rating (scale of 0 to 100), Oat, Wild: 80
[9]; Preemergence, 62 g ai/ha
  Plant response rating (scale of 0 to 100), Oat, Wild: 80
[9]; [15]
  Plant response rating, Oat, Wild: 80
[9]; [16]
  Plant response rating, Oat, Wild: 95
[9]; [17]
  Plant response rating, Oat, Wild: 95
[10]; [11]
  Field Violet plant response rating: 90
[10]; [12]
  Plant response rating, Field Violet: 100
[10]; [13]
  Plant response rating, Field Violet: 100
[10]; Preemergence, 31 g ai/ha
  Plant response rating (scale of 0 to 100), Field Violet: 90
[10]; Preemergence, 62 g ai/ha
  Plant response rating (scale of 0 to 100), Field Violet: 100
[10]; [15]
  Plant response rating, Field Violet: 100
[10]; [16]
  Plant response rating, Field Violet: 100
[10]; [17]
  Plant response rating, Field Violet: 95

Source: patent US10597388B2, “Pyridazinone herbicides” (FMC CORPORATION, priority 2014, dated 2020)
